The nature of this data set: Solubility of the API. In kind it is physicochemical. Conditions: water and a buffer salt solution with pH 1.0-pH 6.8.

Here are results for one compound from patent US20250352543A1, “NANOCRYSTALLINE PREPARATION OF ROCK2 INHIBITOR AND PREPARATION METHOD THEREFOR” (BEIJING TIDE PHARMACEUTICAL CO., LTD., priority 2021, published 2025).

Structures are written as SMILES.

For `Cn1c(C(=O)N2CC(F)(F)C2)cc2ccc(-c3nccc(Nc4ccc(-c5cn[nH]c5)cc4)n3)cc21` [compound of formula (IV), [6-[4-[[4-(1H-pyrazol-4-yl)phenyl]amino]pyrimidin-2-yl]-1-methyl-1H-indole-2-yl](3,3-difluoroazetidin-1-yl)methanone], the Solubility result was “insoluble”.
